Entries after “also recorded” stand apart in the source; their conditions may differ. Like-named read-outs stand apart in the source and are kept apart here.
Assays:
Raf-1/MEK/ERK = assay: Western analysis of Raf-1 pathway activation, H727 cells; format: cell-based, human
Experimental: H727 and BON cells were plated at 50-60% confluence in 100 mm cell culture dishes and incubated overnight.
(§1) Western blot analysis. Cellular extracts were prepared and quantified by BCA protein assay kit (Pierce, Rockford, Ill.) as previously described (Sippel et al., 2003). 30-50 μg of denatured proteins from each sample underwent electrophoresis on a SDS-polyacrylamide gel and transferred to a nitrocellulose membranes (Schleicher and Schuell, Keene, N.H.). Membranes were blocked for 1 hr in milk solution (1×PBS, 5% non-fat dry milk, 0.05% Tween-20) and then incubated at 4° C. overnight with primary antibodies. The following primary antibody dilutions were used: phospho-ERK 1/2 (1:1,000); phospho-MEK (1:1,000); phospho-Raf-1 (Serine338) (1:1,000); p21 and p18, (1:1,000); (Cell Signal Technology, Beverly, Mass.), Chromogranin A (1:2,000; Zymed Laboratories, San Francisco, Calif.); MASH-1 (1:1000, BD Pharmingen) and G3PDH (1:10,000; Trevigen, Gaithersburg, Md.). After primary antibody incubation, membranes were washed 3×5 min in PBS-T wash buffer (1×PBS, 0.05% Tween 20). Then the membranes were incubated with either 1:2,000 dilution of goat anti-rabbit or goat anti-mouse secondary antibody (Cell Signal Technology, Beverly, Mass.) depending on the source of the primary antibody for 1 hr at room temperature. Membranes were washed 3×5 min in PBS-T wash buffer and developed by Immunstar™ HRP (Bio-Rad Laboratories, Hercules, Calif.) according to the manufacturer's directions. For the detection of hASH1 protein, membranes were developed with SuperSignal West Femto chemiluminescence reagent (Pierce).

[1] = system: HT-29 cells, a colon cancer cell line; assay: cell morphology after 9-day treatment, HT-29 cells; format: cell-based
Source text: (§2) The results were assay using standard MTT, Western blot and cytoxocity assays.

pMEK and p-MAPK [2] = assay: Western blot of pMEK and p-MAPK, HepG2 cells; format: cell-based
Source text: as §2

H727 cells = assay: Drug toxicity assay, propidium iodide exclusion, H727 cells; format: cell-based, human
Experimental: (§3) Drug Toxicity Assay. Briefly, cells were trypsinized and plated in a 6-well plate at 1-2×10^6 in triplicate and allowed to adhere overnight. […] As a control, DMSO was added. After incubation, the media was removed and cells were trypsinized and added to removed media. Cells were incubated on ice and 2.5 μg/ml Propidium Iodide (Sigma, St. Louis, Mo.) was added five minutes before flow cytometry (Ballestrero et al., 2004). Data was acquired using a FACSCalibur benchtop flow cytometer (Becton Dickenson, San Jose, Calif.) using CellQuest acquisition and analysis software.

[3] = as above; format: cell-based, human; details: human, 500 μM, 2 days, compared to native H727 cells, read-out: viable cells by PI exclusion
Experimental: as §3

pMEK and p-MAPK [4] = assay: Western blot of pMEK and p-MAPK, HT-29 cells; format: cell-based
Source text: as §2

p-MAPK [5] = assay: Western blot of p-MAPK, MiaPaCa-2 cells; format: cell-based; details: all concentrations tested
Source text: as §2

[6] = Drug toxicity assay, propidium iodide exclusion, BON cells; format: cell-based; details: human, 63 to 500 μM, read-out: viable cells by PI exclusion
Experimental: as §3

hASH1 = assay: Western analysis of hASH1, BON cells; format: cell-based, human; details: 20 μM and 100 μM, 2 days
Experimental: (§4) ZM 336372 treatment. H727 and BON cells were plated at 50-60% confluence in 100 mm cell culture dishes and incubated overnight.
as §1, with “Membranes were washed 3×5 min in PBS-T wash buffer and developed by Immunstar™ HRP (Bio-Rad Laboratories, Hercules, Calif.) according to the manufacturer's directions. For the detection of hASH1 protein, membranes were developed with SuperSignal West Femto chemiluminescence reagent (Pierce).” left out

p21 = assay: Western analysis of cell cycle inhibitor p21, H727 cells; format: cell-based, human; details: 20 μM and 100 μM, 2 days
Experimental: as §4
as §1, with “Membranes were washed 3×5 min in PBS-T wash buffer and developed by Immunstar™ HRP (Bio-Rad Laboratories, Hercules, Calif.) according to the manufacturer's directions. For the detection of hASH1 protein, membranes were developed with SuperSignal West Femto chemiluminescence reagent (Pierce).” left out

HepG2 = HepG2 MTT Assay; format: cell-based; details: HepG2, three concentrations
Experimental: FIG. 18—HepG2 MTT Assay. The MTT assay is a laboratory test for measuring cellular proliferation (cell growth). MTT is added to a cell culture and is modified into a dye by enzymes associated with metabolic activity in a live cell. MTT is short for 3-(4,5-dimethylthiazol-2-yl)-2,5-diphenyltetrazolium bromide.
as §2

[7] = system: H727 pulmonary carcinoid cells; assay: cell culture pictures of H727 cells; format: cell-based, human; details: 100 μM, days 2, 4 and 6, versus DMSO
Experimental: Cell culture. Human pulmonary carcinoid cells (NCI-H727) were obtained from American Type Culture Collection (Manassas, Va.) and human pancreatic carcinoid tumor cells, BON a generous gift of Drs. Evers and Townsend (Parekh et al., 1994), were maintained in RPMI 1640 and D-MEM-F12 media (Life Technologies, Rockville, Md.) respectively supplemented with 10% Fetal Bovine Serum (Sigma, St. Louis, Mo.), 100 IU/ml penicillin and 100 μg/ml streptomycin (Life Technologies) in a humidified atmosphere of 5% CO2 in air at 37° C. The maintenance of BON-raf cells and the activation of Raf-1 were followed as described previously (Sippel et al., 2003; Sippel and Chen, 2002; McMahon, 2001).
as §4

Chromogranin A = assay: Western analysis of CgA, BON cells; format: cell-based, human; details: 20 to 100 μM, 2 days
Experimental: as §4
as §1, with “Membranes were washed 3×5 min in PBS-T wash buffer and developed by Immunstar™ HRP (Bio-Rad Laboratories, Hercules, Calif.) according to the manufacturer's directions. For the detection of hASH1 protein, membranes were developed with SuperSignal West Femto chemiluminescence reagent (Pierce).” left out

p-MAPK [8] = assay: Western blot of p-MAPK, Panc-1 cells; format: cell-based; details: all concentrations tested
Source text: as §2

raf-1 = details: cited from earlier work
[9] = system: BON pancreatic carcinoid cells; assay: MTT cell proliferation assay, BON cells; format: cell-based, human; details: 100 μM, to day 10, versus DMSO
Experimental: (§5) MTT Cell Proliferation Assay. […] Cells were trypsinized and plated in triplicate to 24 wells plates and allowed to adhere overnight. […] Cells were incubated and maintained with change of treatments at 2 days. Cell growth rates were analyzed after the addition of MTT reagent to the cultured cells following manufacturer's instructions. Absorbance was determined using spectrophotometer at a wave length of 540 nm.

[10] = system: H727 pulmonary carcinoid cells; assay: MTT cell proliferation assay, H727 cells; format: cell-based, human; details: 100 μM, to day 16, versus DMSO
Experimental: as §5

In the case of `Cc1ccc(NC(=O)c2cccc(N(C)C)c2)cc1NC(=O)c1ccc(O)cc1` [ZM336372, N-[5-(dimethyl-aminobensamido)-2-methylphenyl]-4-hydroxybenzamide], the “phosphorylated ERK 1/2 (pERK, pMAPK)” value (Raf-1/MEK/ERK; 20 μM and 100 μM, 2 days) is reported as “elevated phosphorylated MAPK; also recorded: activation of MEK 1/2 and ERK 1/2; also recorded: dose dependent increases”, the “phosphorylated MEK 1/2 (pMEK)” value (Raf-1/MEK/ERK; 20 μM and 100 μM, 2 days) is reported as “activation of MEK 1/2 and ERK 1/2; also recorded: dose dependent increases” and the “phosphorylated Raf-1 at serine 338 (pRaf-1)” value (Raf-1/MEK/ERK; 20 μM and 100 μM, 2 days) is reported as “phosphorylated at serine 338; also recorded: dose dependent increases”. For the same compound, the “phosphorylated MEK 1/2 over time” value (Raf-1/MEK/ERK; 100 μM, days 2, 4 and 6) was “prolonged; also recorded: greater than controls out to 6 days”, the cell death ([1]; HT-29, 100 μM, 9-day cycle) was “significant cell death” and the “number of cells in culture” value ([1]; HT-29, 50 microM, day 9, versus control) was “dramatic difference in the number of cells present at day 9”. The cytopathology ([1]; HT-29, low concentrations, 9-day cycle) was “cytopathology at low concentrations”, the p-MAPK level (pMEK and p-MAPK [2]) was “increase in the levels of both pMEK and p-MAPK” and the pMEK level (pMEK and p-MAPK [2]) was “increase in the levels of both pMEK and p-MAPK”. The cytolysis (H727 cells; 20-100 μM) was “less than 20%”, the “viability by PI exclusion” value (H727 cells; 20 to 100 μM, 2 days, compared to DMSO) was “significant viability was maintained” and the viability at 2 days, 500 µM [3] was 40 to 50%. The p-MAPK level (pMEK and p-MAPK [4]) was “increase in the levels of both pMEK and p-MAPK”, the pMEK level (pMEK and p-MAPK [4]) was “increase in the levels of both pMEK and p-MAPK” and the p-MAPK level (p-MAPK [5]) was “increase in p-MAPK following treatment at all concentrations tested”. For the same compound, the viability at 2 days [6] was ~70%, the hASH1 level (hASH1) was “reduction in both CgA and hASH1; also recorded: dose dependent decrease” and the p21 expression (p21) was “induced; also recorded: significant induction”. For the same compound, the “cellular proliferation (MTT)” value (HepG2) was “effects at low concentrations; also recorded: reduction in cellular proliferation”, the “growth of H727 cells in culture” value [7] was “never reached confluence; also recorded: clear difference in growth; also recorded: paucity of cells reaching confluence” and the “CgA (chromogranin) level” value (Chromogranin A) was “decreased secretion of chromogranin; also recorded: reduction in both CgA and hASH1; also recorded: decreasing expression of chromogranin at higher concentrations; also recorded: dose dependent decrease”. For the same compound, the p-MAPK level (p-MAPK [8]) was “increase in p-MAPK following treatment at all concentrations tested”, the “activation of raf-1” value (raf-1; COS1 cells) was > 100 fold and the “activation of raf-1” value (raf-1; NIH3T3 cells) was > 100 fold. For the same compound, the “activation of raf-1” value (raf-1; PC12 cells) was > 100 fold, the “raf-1 activation compared with EGF stimulation” value (raf-1; Swiss 3T3 cells) was “much higher than that attained after stimulation with epidermal growth factor (EGF)” and the “time for which induction of raf-1 was sustained” value (raf-1; Swiss 3T3 cells) was “at least 3 hours”. The “time of exposure after which induction of raf-1 occurred” value (raf-1; Swiss 3T3 cells) was 60 min, the “activation of raf-1” value (raf-1; human 293 cells) was > 100 fold and the “BON cell proliferation/metabolism (MTT)” value [9] was “lack of cell metabolism; also recorded: clear suppression of growth; also recorded: growth suppression occurred as early as day 4 and was maintained out to day 10; also recorded: inhibited”. For the same compound, the “H727 cell proliferation (MTT)” value [10] was “clear suppression of growth; also recorded: growth suppressed; also recorded: inhibited”.
